Reference: patent publication US8603737B2, “Methods for identifying HCV protease inhibitors” (priority 2008, dated 2013)

How the values were obtained:
Format in all cases: biochemical
[1] = biological target: T1, wild type HCV NS3/4A 1b protease enzyme (Hepatitis C virus genotype 1b, UniProt P26663); test: HCV protease FRET assay, wild type NS3/4A 1b enzyme
T1 construct: 10× stocks of NS3/4A protease enzyme from Bioenza; purchased Bioenza (Mountain View, Calif.)
Text: Method B: HCV Protease FRET Assay for Wild Type and Mutated NS3/4A 1b Enzymes (IC50)
A quantitative, fluorescence resonance energy transfer (FRET)-based methodology was employed to identify HCV NS3/4A protease inhibitors. The assay employed a synthetic FRET peptide, derived from the HCV NS5A/5B cleavage site, with the HCV protease to evaluate the activity of compounds against the protease by monitoring the cleavage activity of the complex. A synthetic peptide which encompasses the NS5A-5B junction (NH2-[…]-COOH) (SEQ ID NO: 78) was labeled with Dabcyl and Edans at N- and C-termini, respectively (Invitrogen, Carlsbad, Calif.). Fluorescence measurement was used to estimate the IC50 value of the test compound. […] Upon cleavage of the FRET peptide by HCV NS3/4A proteinase complex (100 ng/mL), the fluorescence is recovered and can be continuously monitored at excitation/emission=340/490 nm.
Assay buffer: 2% CHAPS, 50 mM Tris pH 7.5, 50% glycerol, 2 uM M-2235 (Bachem) substrate. In a 50 μl reaction, add 49 μl assay buffer, 1 μl (1 U) HCV serine protease (Bioenza). Incubate 20 minutes at room temperature. The plate was read at either 350/460 nm (excitation/emission) on a fluorescent micro-plate reader or monitored at one-minute intervals to achieve the kinetic curve.
HCV Protease FRET Assay for WT and Mutated NS3/4A 1b Enzymes (IC50 —APP)
The following protocol was used to generate “apparent” IC50 (IC50—APP)) values as depicted in Table 3, below. Without wishing to be bound by any particular theory, it is believed that IC50—APP, contrasted with IC50 values, may provide a more useful indication of time-dependent inhibition, and are thus more representative of binding affinity. […] Protease reactions were immediately started after enzyme addition with the addition of 45 μL of the FRET substrate and monitored for 60-90 minutes at λex485/λem520 in a Synergy^4 plate reader from BioTek (Winooski, Vt.). […]

[2] = biological target: T2, D168A mutant of the HCV NS3/4A 1b protease enzyme (Hepatitis C virus genotype 1b, UniProt P26663, D1194A); test: HCV protease FRET assay, D168A mutant; settings: read-out: Inhibition, HCV D168A (IC50)
T2 construct: 10× stocks of NS3/4A protease enzyme from Bioenza; purchased Bioenza (Mountain View, Calif.)
Experimental: (§1) HCV Protease FRET Assay for Mutated NS3/4A 1b Enzymes
(§2) The protocol is a modified FRET-based assay (v—02) from In Vitro Resistance Studies of HCV Serine Protease Inhibitors, 2004, JBC, vol. 279, No. 17, pp 17508-17514. Inherent potency of compounds was assessed against A156S, A156T, D168A, and D168V mutants of the HCV NS3/4A 1b protease enzyme as follows: […]
(§3) 10× stocks of NS3/4A protease enzyme from Bioenza (Mountain View, Calif.) and 1.13×5-FAM/QXL™520 FRET peptide substrate from Anaspec (San Jose, Calif.) were prepared in 50 mM HEPES, pH 7.8, 100 mM NaCl, 5 mM DTT and 20% glycerol. 5 μL of each enzyme were pre-incubated in a Corning (#3573) 384-well, black, non-treated microtiter plate (Corning, N.Y.) for 30 min at 25° C. with a 0.5 μL volume of 50% DMSO and serially diluted compounds prepared in 50% DMSO. Protease reactions were started with the addition of 45 μL of the FRET substrate and monitored for 120 minutes at λex487/λem514 through Quad^4 monochromoters in a Synergy^4 plate reader from BioTek (Winooski, Vt.). At the conclusion of each assay, progress curves from each well were examined for linear reaction kinetics and fit statistics (R^2, absolute sum of squares). Initial velocity (0 minutes to 30+ minutes) from each reaction was determined from the slope of a plot of relative fluorescence units vs time (minutes) and then plotted against inhibitor concentration to estimate IC50 from log[Inhibitor] vs Response, Variable Slope model in GraphPad Prism from GraphPad Software (San Diego, Calif.). […]
(§4) The compound numbers correspond to the compound numbers in Table 3. Compounds having an activity designated as “A” provided an IC50≦10 nM; compounds having an activity designated as “B” provided an IC50>10 nM and ≦100 nM; compounds having an activity designated as “C” provided an IC50>100 nM and ≦1000 nM; and compounds having an activity designated as “D” provided an IC50>1000 nM and <10,000 nM.

[3] = biological target: T3, A156S mutant of the HCV NS3/4A 1b protease enzyme (Hepatitis C virus genotype 1b, UniProt P26663, A1182S); test: HCV protease FRET assay, A156S mutant; settings: read-out: Inhibition, HCV A156S (IC50)
T3 construct: 10× stocks of NS3/4A protease enzyme from Bioenza; purchased Bioenza (Mountain View, Calif.)
Experimental: as §1, §2, §3, §4

| Compound | IC50 [1] [nM] | IC50 [2] [nM] | IC50 [3] [nM] |
| --- | --- | --- | --- |
| C=CC(=O)N(C)C[C@H](NC(=O)OC(C)(C)C)C(=O)N1C[C@H](OC(=O)N2Cc3cccc(F)c3C2)C[C@H]1C(=O)N[C@]1(C(=O)NS(=O)(=O)C2CC2)C[C@H]1C=C [Compound 4] | < 10 | 10 to 100 | < 10 |
| C=C[C@@H]1C[C@]1(NC(=O)[C@@H]1C[C@@H](Oc2cc(-c3ccccc3)nc3cc(OC)ccc23)CN1C(=O)C(NC(=O)OC(C)(C)C)[C@@H](C)OC(=O)/C=C/C)C(=O)NS(=O)(=O)C1CC1 (stereo partly drawn) [Compound 3] | < 10 | 100 to 1000 | < 10 |
| CC(C)(C)OC(=O)NC1CN(C(=O)CCl)CCC/C=C\[C@@H]2C[C@@]2(C(=O)NS(=O)(=O)C2CC2)NC(=O)[C@@H]2C[C@@H](OC(=O)N3Cc4cccc(F)c4C3)CN2C1=O (stereo partly drawn) [Compound 8] | < 10 | 10 to 100 | < 10 |
